This experiment deals with T1, rat brain voltage-gated K+ channel, Kv1.3 (Rattus norvegicus, UniProt P15384).
T1 construct: expressed in transfected cells; host or cells: Xenopus oocytes (cRNA injection; pAS18 vector, SP6 transcription; clone from Prof; O. Pongs)
The experiment is described as follows: Assay of K+ channel inhibition: two-electrode voltage clamp of Kv1.3 expressed in Xenopus oocytes. It counts as cell-based. Particulars: IC50 comparison with C-terminally amidated HsTX1. As to the method: Assay on inhibitory activity of the peptides on K^+ channels was performed in the following manner. The gene of the rat brain voltage-gated K^+ channel, Kv1.3 (Stuhmer et al., EMBO J., 8, vol. 11, pp. 3235-3244, 1988), which was graciously contributed by Prof. O. Pongs (Institute für Neurale Signalverarbeitung, Hamburg, Germany) was inserted into pAS18 vector according to a conventional technique. This vector was treated with EcoRI and then the resultant clone was transcribed in vitro with SP6 RNA polymerase using a transcription kit (Stratagene Inc., USA). The cRNA obtained was injected into Xenopus oocytes 16-72 hr prior to electrophysiological experiments.
The oocytes which had been expressed the Kv1.3 gene were added to a 100 μl-chamber filled with an ND96 solution (0.3 mM CaCl2, 1 mM MgCl2, 2 mM KCl and 96 mM NaCl in 5 mM Hepes buffer, pH 7.6) supplemented with 50 mg/ml of bovine serum albumin (BSA), and the ND96 solution was continuously perfused through reservoirs at a flow rate of 4 ml/min. The sample to be tested was separately dissolved to an ND96 solution and then added to the chamber by perfusion through a reservoir. The switching from one reservoir to another for each experiment was performed by means of Teflon valves. All measurements were made at room temperature (about 22° C.). […]
In general terms: Two-electrode voltage clamp holds a large cell at a set potential and records current.

T1 sequence (P15384 whole entry): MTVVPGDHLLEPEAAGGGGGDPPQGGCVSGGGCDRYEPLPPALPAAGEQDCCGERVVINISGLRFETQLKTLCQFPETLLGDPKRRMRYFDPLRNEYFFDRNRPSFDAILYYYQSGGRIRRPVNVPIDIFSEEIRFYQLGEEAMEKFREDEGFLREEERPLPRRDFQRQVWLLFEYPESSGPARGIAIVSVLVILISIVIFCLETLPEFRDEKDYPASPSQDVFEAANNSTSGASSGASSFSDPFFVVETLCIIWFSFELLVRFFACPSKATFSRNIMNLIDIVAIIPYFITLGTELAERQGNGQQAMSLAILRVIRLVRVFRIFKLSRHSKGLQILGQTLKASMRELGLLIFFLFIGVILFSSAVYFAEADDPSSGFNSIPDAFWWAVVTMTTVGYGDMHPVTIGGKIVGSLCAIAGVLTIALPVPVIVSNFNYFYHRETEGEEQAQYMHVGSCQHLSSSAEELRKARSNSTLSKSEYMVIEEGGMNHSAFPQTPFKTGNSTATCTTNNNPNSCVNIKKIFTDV

For `CSCC[C@@H]1NC(=O)[C@@H]2CSSC[C@H](NC(=O)[C@H](CO)NC(=O)[C@H](C)N)C(=O)N[C@@H](CCCNC(=N)N)C(=O)N[C@@H]([C@@H](C)O)C(=O)N3CCC[C@H]3C(=O)N[C@@H](CCCCN)C(=O)N[C@@H](CC(=O)O)C(=O)N[C@H]3CSSC[C@H](NC(=O)[C@H](CCCCN)NC(=O)[C@H](CCCNC(=N)N)NC(=O)[C@H](CC(N)=O)NC1=O)C(=O)N[C@@H](CCCCN)C(=O)N[C@H]1CSSC[C@H](NC(=O)[C@@H]4CCCN4C(=O)[C@H](CC(=O)O)NC(=O)[C@H](C)NC3=O)C(=O)N[C@@H](CCCNC(=N)N)C(=O)N[C@@H](CCCCN)C(=O)N[C@@H](CCC(=O)O)C(=O)N[C@@H]([C@@H](C)O)C(=O)NCC(=O)N[C@@H](CSSC[C@@H](C(=O)O)NC(=O)[C@H](CCCNC(=N)N)NC(=O)[C@H](CC(N)=O)NC1=O)C(=O)N1CCC[C@H]1C(=O)N[C@@H](Cc1ccc(O)cc1)C(=O)NCC(=O)N[C@@H](CCCCN)C(=O)N2` [HsTX1-COOH], the “activity relative to HsTX1 on Kv1.3” value is “about one-fifth”.

(Values after patent US6689749B1, “Neuropeptides originating in scorpion” (Suntory Limited, priority 1996, dated 2004).)
